The source of these data is patent US7820690B2, “Method of treating or inhibiting a non-digestive tract derived abdominal disorder associated with pain using a 5-HT, receptor antagonist” (Solvay Pharmaceuticals GmbH, priority 2004, dated 2010).

Where two headings read alike, the source gives them in different places.

This assay deals with rats with cyclophosphamide-induced cystitis. Description: cystometry in rats with cyclophosphamide-induced cystitis. To be noted: for inhibition at 0.01 mg/kg / inhibition at 0.1 mg/kg: Rattus norvegicus, iv; for inhibition at 0.01 mg/kg: group 4, cilansetron 0.01 mg/kg i.v.; for inhibition at 0.1 mg/kg: group 5, cilansetron 0.1 mg/kg i.v. Format: in vivo, male Wistar rats. The protocol:
In this test model, the effect of 5-HT3 receptor antagonists on rats with cyclophosphamide-induced cystitis was investigated.
Inflammation of the bladder responsible for bladder overactivity was induced by an intraperitoneal (i.p.) cyclophosphamide injection (150 mg/kg, i.p.) 48 hours before testing (Maggi et al., J Auton Nerv Syst 38 (1992) 201) using male Wistar rats weighing 300-350 g. The rats were anesthetized with urethane delivered subcutaneously in saline (1.2 g/kg), and their temperature was maintained at 37° C. Following a midline abdominal incision, a catheter was inserted through the bladder dome and sealed with a tie. The catheter was connected via a T-tube to a pressure transducer and a syringe pump, to allow filling of the bladder with warm (37° C.) saline at 50 μl/min simultaneously with recording of intravesical pressure. This catheter was later used for cystometry.
For each voiding and non-voiding contraction, the threshold pressure (ThP, corresponding to the bladder pressure at the onset of the voiding contraction (mm Hg)), the maximal voiding pressure (MP, defined by the maximal bladder pressure reached during voiding contraction (mm Hg)) the basal pressure (BaP, defined by the lowest bladder pressure reached after the voiding contraction (mm Hg)) and the area under the curve of the bladder pressure (AUP) during voiding (mm Hg×s) was calculated for each rat and averaged for each condition. In addition, the frequency of contractions was determined.
Test groups consisting of 10 rats each were used. Drug treatments were carried out as described in the following Table 1.
In groups 2 through 5, cystitis was induced by administration of cyclophosphamide 150 mg/kg intraperitoneally (i.p.) 48 hours before the experiment. Group 1 served as a control group. Drugs or vehicle to be tested were injected 10 minutes before the beginning of cystometry. Besides […] doses of cilansetron (groups 4-5), HOE140 (D-Arginyl-[Hyp3, Thi5, D-Tic7, Oic8]-bradykinin), a bradykinin 2 receptor antagonist, was used as a reference standard known to be active in this model. During the cystometry the pressure changes due to transvesical perfusion of warm saline at 50 μl/min were recorded over 60 minutes. Parameters (as outlined above) were analyzed for each bladder filling.

[1] abbreviates: read-out: % inhibition of cystitis effects, basal pressure.
[2] abbreviates: read-out: % inhibition of cystitis effects, frequency.
Setting [3] is: read-out: % inhibition of cystitis effects, threshold pressure.
[4] abbreviates: group 4, cyclophosphamide cystitis + cilansetron 0.01 mg/kg i.v.
Setting [5] is: group 5, cyclophosphamide cystitis + cilansetron 0.1 mg/kg i.v.
The mark [6] stands for this setting: HOE140 130 μg/kg i.v., effect of treatment in cystitis rats.
Where [7] appears, read: group 3, cyclophosphamide cystitis + HOE140 130 μg/kg i.v.

Usually inhibition stands for the share of the control response that was lost under treatment. Regarding `Cc1nccn1C[C@H]1CCc2c(c3cccc4c3n2CCC4)C1=O` [cilansetron, (R)-(−)-4,5,6,8,9,10-hexahydro-10-[(2-methyl-1H-imidazol-1-yl)methyl]-11H-pyrido-[3,2,1-jk]-carbazol-11-one], under setting [1], the inhibition at 0.01 mg/kg was 50% and the inhibition at 0.1 mg/kg came out at 83%. Under setting [2], the inhibition at 0.01 mg/kg was determined as 45% and the inhibition at 0.1 mg/kg was determined as 35%. Under setting [3], the inhibition at 0.01 mg/kg was determined as 60% and the inhibition at 0.1 mg/kg came out at 100%. Also, the “effectiveness compared with reference compound HOE 140” value (cilansetron 0.01 mg/kg i.v.) was “similarly effective to, or even more effective than”. Besides, the “symptoms of bladder overactivity associated with cyclophosphamide pretreatment” value (cilansetron 0.01 and 0.1 mg/kg, compared with HOE140) is listed as “reduced these symptoms to an equivalent or slightly greater extent”. Also, the “beneficial effect compared with HOE140” value (cystometry in rats with cyclophosphamide-induced cystitis, overall conclusion) is listed as “superior”. Besides, under setting [4], the basal pressure is given as 16 mmHg, the “frequency of bladder contractions” value is 26 h⁻¹ and the threshold pressure turned out to be 17 mmHg. Under setting [5], the basal pressure is listed as 14 mmHg, the “frequency of bladder contractions” value was 28 h⁻¹ and the threshold pressure worked out at 15 mmHg.
Regarding “D-Arginyl-[Hyp3, Thi5, D-Tic7, Oic8]-bradykinin [HOE140]”, under setting [6], the “area under the curve of the bladder contractions” value is reported as “not affected”, the first micturition volume entry was “not affected” and the micturition pressure result is reported as “not affected”. For the same compound, where the note is “acute treatment, HOE140 130 μg/kg”, the “symptoms of bladder overactivity associated with cyclophosphamide pretreatment” value is listed as “reduced the symptoms of bladder overactivity”. For the same compound, where the note is “group 3, HOE140 130 μg/kg i.v.”, the “% inhibition of cystitis effects, basal pressure” value is 50%; the “% inhibition of cystitis effects, frequency” value was 25%; the “% inhibition of cystitis effects, threshold pressure” value was determined as 60%. Under setting [7], the “frequency of bladder contractions” value amounted to 30 h⁻¹ and the threshold pressure is given as 17 mmHg. Where the note is “group 3, cyclophosphamide cystitis + HOE140 130 μg/kg i.v., 10 minutes before cystometry”, the basal pressure worked out at 16 mmHg.
